The source of these data is patent US20120157433A1, “Heteroaryl Compounds as Kinase Inhibitors” (priority 2009, published 2012).

One assay addresses Cdk9/cyclinT1 (Homo sapiens, UniProt P50750). Put plainly: Cdk9/cyclinT1 kinase assay (IMAP or Alpha Screen protocol).
Another assay concerns neointima formation. The following applies: rats; cited from earlier work.

Cdk9/cyclinT1, sequence (P50750 whole entry): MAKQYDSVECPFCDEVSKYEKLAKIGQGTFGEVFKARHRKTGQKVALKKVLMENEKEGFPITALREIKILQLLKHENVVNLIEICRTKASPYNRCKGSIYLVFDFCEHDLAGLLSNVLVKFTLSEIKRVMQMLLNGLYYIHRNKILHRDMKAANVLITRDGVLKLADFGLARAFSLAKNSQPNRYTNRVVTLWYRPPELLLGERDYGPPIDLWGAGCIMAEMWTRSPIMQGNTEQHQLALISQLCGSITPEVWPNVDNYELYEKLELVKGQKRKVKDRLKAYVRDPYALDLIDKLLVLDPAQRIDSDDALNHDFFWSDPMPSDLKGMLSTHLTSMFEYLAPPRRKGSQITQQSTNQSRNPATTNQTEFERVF
Cdk9/cyclinT1, sequence (O60563 whole entry partner): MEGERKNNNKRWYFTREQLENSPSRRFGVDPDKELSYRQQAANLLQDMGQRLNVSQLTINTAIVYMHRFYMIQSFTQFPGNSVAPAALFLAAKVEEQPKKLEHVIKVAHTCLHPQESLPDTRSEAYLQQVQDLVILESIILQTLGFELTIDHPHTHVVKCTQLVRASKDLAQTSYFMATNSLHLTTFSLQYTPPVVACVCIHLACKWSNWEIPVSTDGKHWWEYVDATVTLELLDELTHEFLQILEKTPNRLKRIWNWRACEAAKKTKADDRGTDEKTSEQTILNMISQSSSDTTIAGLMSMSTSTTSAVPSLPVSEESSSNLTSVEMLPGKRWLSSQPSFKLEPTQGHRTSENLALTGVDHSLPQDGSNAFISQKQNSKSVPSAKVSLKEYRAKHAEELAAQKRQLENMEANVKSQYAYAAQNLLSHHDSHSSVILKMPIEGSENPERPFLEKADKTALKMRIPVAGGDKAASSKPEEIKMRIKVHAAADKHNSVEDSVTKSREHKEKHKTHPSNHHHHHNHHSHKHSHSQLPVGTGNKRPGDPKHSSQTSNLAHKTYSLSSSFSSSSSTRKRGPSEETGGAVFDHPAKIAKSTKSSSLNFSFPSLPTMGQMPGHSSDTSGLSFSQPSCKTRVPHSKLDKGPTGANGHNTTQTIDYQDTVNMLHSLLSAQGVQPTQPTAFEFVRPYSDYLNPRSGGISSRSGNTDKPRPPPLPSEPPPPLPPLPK
Method for Cdk9/cyclinT1: Cdk9/cyclinT1 IMAP Protocol
Cdk9/cyclinT1 is purchased from Millipore, cat #14-685. The final total protein concentration in the assay 4 nM. […] The final concentration of peptide substrate is 100 nM. The ATP substrate (Adenosine-5′-triphosphate) is purchased from Roche Diagnostics, cat#1140965. The final concentration of ATP substrate is 6 uM. IMAP (Immobilized Metal Assay for Phosphochemicals) Progressive Binding reagent is purchased from Molecular Devices, cat#R8139. Fluorescence polarization (FP) is used for detection. The 5TAMRA-cdk7tide peptide is phosphorylated by Cdk9/cyclinT1 kinase using the ATP substrate.
The Phospho-5TAMRA-cdk7tide peptide substrate is bound to the IMAP Progressive Binding Reagent. The binding of the IMAP Progressive Binding Reagent changes the fluorescence polarization of the 5TAMRA-cdk7tide peptide which is measured at an excitation of 531 nm and FP emission of 595 nm. Assays are carried out in 100 mM Tris, pH=7.2, 10 mM MgCl2, 0.05% NaN3, 0.01% Tween-20, 1 mM dithiothreitol and 2.5% dimethyl sulfoxide. IMAP Progressive Binding Reagent is diluted 1:800 in 100% 1× Solution A from Molecular Devices, cat#R7285.
General protocol is as follows: To 10 uL of cdk9/cyclinT1, 0.5 uL of test compound in dimethyl sulfoxide is added. 5TAMRA-cdk7tide and ATP are mixed. 10 uL of the 5TAMRA-cdk7tide/ATP mix is added to start the reaction. The reaction is allowed to proceed for 4.5 hrs. 60 uL of IMAP Progressive Binding Reagent is added. After >1 hr of incubation, plates are read on the Envision 2101 from Perkin-Elmer. The assay is run in a 384-well format using black Corning plates, cat#3573.
Cdk9/cyclinT1 Alpha Screen Protocol
Full length wild type Cdk9/cyclin T1 is purchased from Invitogen, cat#PV4131. The final total protein concentration in the assay 1 nM. […] The final concentration of cdk7tide peptide substrate is 200 nM. The ATP substrate (Adenosine-5′-triphosphate) is purchased from Roche Diagnostics. The final concentration of ATP substrate is 6 uM. Phospho-Rpb1 CTD (ser2/5) substrate antibody is purchased from Cell Signaling Technology. The final concentration of antibody is 0.67 ug/mL. The Alpha Screen Protein A detection kit containing donor and acceptor beads is purchased from PerkinElmer Life Sciences. The final concentration of both donor and acceptor beads is 15 ug/mL. Alpha Screen is used for detection. The biotinylated-cdk7tide peptide is phosphorylated by cdk9/cyclinT1 using the ATP substrate. The biotinylated-cdk7tide peptide substrate is bound to the streptavidin coated donor bead. The antibody is bound to the protein A coated acceptor bead. The antibody will bind to the phosphorylated form of the biotinylated-cdk7tide peptide substrate, bringing the donor and acceptor beads into close proximity. Laser irradiation of the donor bead at 680 nm generates a flow of short-lived singlet oxygen molecules. When the donor and acceptor beads are in close proximity, the reactive oxygen generated by the irradiation of the donor beads initiates a luminescence/fluorescence cascade in the acceptor beads. This process leads to a highly amplified signal with output in the 530-620 nm range. Assays are carried out in 50 mM Hepes, pH=7.5, 10 mM MgCl2, 0.1% Bovine Serum Albumin, 0.01% Tween-20, 1 mM Dithiolthreitol, 2.5% Dimethyl Sulfoxide. Stop and detection steps are combined using 50 mM Hepes, pH=7.5, 18 mM EDTA, 0.1% Bovine Serum Albumin, 0.01% Tween-20.
General protocol is as follows: To 5 uL of cdk9/cyclinT1, 0.25 uL of test compound in dimethyl sulfoxide is added. Cdk7tide peptide and ATP are mixed. 5 uL of the cdk7tide peptide/ATP mix is added to start the reaction. The reaction is allowed to proceed for 5 hrs. 10 uL of Ab/Alpha Screen beads/Stop-detection buffer is added. Care is taken to keep Alpha Screen beads in the dark at all times.

For the compound `CC(C)Oc1ccc(F)cc1-c1cc(NC(=O)[C@@H]2CCCNC2)ncc1Cl` [Example 5, (R)-Piperidine-3-carboxylic acid [5-chloro-4-(5-fluoro-2-isopropoxy-phenyl)-pyridin-2-yl]-amide], the midpoint of inhibition against Cdk9/cyclinT1, the IC50, lay at 2 nM. That is a single-digit nanomolar value.

Regarding `COc1ccccc1-c1cc(NC(=O)[C@@H]2CCCNC2)ncc1Cl` [Example 3, (R)-Piperidine-3-carboxylic acid [5-chloro-4-(2-methoxy-phenyl)-pyridin-2-yl]-amide], the IC50 on Cdk9/cyclinT1 is under 8 nM.

In the case of `O=C(Nc1cc(-c2cc(F)cc(NCC3CCOCC3)c2)c(Cl)cn1)[C@@H]1CCCNC1` [Example 9, (R)—N-(5-Chloro-4-(3-fluoro-5-(((tetrahydro-2H-pyran-4-yl)-methyl)amino)phenyl)-pyridin-2-yl)piperidine-3-carboxamide], on Cdk9/cyclinT1, the IC50 was under 8 nM.

The compound `CC(C)(C)OC(=O)N1CCC[C@@H](C(=O)Nc2cc(-c3cc(F)cc(NCC4CCOCC4)c3)c(Cl)cn2)C1` [Example 10, (R)-3-(5-Chloro-4-{3-fluoro-5-[(tetrahydro-pyran-4-ylmethyl)-amino]-phenyl}-pyridin-2-ylcarbamoyl)-piperidine-1-carboxylic acid tert-butyl ester] yielded an IC50 at Cdk9/cyclinT1 of 11 nM.

As to `O=C(Nc1cc(-c2cccc(NCC3CCOCC3)c2)c(Cl)cn1)[C@@H]1CCCNC1` [Example 7, (R)—N-(5-chloro-4-(3-(((tetrahydro-2H-pyran-4-yl)methyl)amino)phenyl)pyridin-2-yl)piperidine-3-carboxamide], the half-maximal inhibitory concentration (IC50) against Cdk9/cyclinT1 was under 8 nM.

At Cdk9/cyclinT1, `O=C(Nc1cc(-c2cccc(F)c2)c(Cl)cn1)[C@@H]1CCCNC1` [Example 2, (R)-Piperidine-3-carboxylic acid [5-chloro-4-(3-fluoro-phenyl)-pyridin-2-yl]-amide] had an IC50 of 10 nM. In other words, the double-digit nanomolar range.

In turn, `O=C(Nc1cc(-c2cccc(NCC3CCOCC3)c2)c(Cl)cn1)[C@H]1CCCNC1` [Example 8, (S)-Piperidine-3-carboxylic acid (5-chloro-4-{3-[(tetrahydro-pyran-4-ylmethyl)-amino]-phenyl}-pyridin-2-yl)-amide] came in with an IC50 against Cdk9/cyclinT1 of 23 nM.

The compound `O=C(Nc1cc(-c2cc(F)cc(NCC3CCOCC3)c2)c(Cl)cn1)[C@H]1CCCNC1` [Example 11, (S)-Piperidine-3-carboxylic acid (5-chloro-4-{3-fluoro-5-[(tetrahydro-pyran-4-ylmethyl)-amino]-phenyl}-pyridin-2-yl)-amide] yielded a half-inhibitory concentration (IC50) at Cdk9/cyclinT1 of 11 nM.

On Cdk9/cyclinT1, `O=C(Nc1cc(-c2cc(NCC3CCOCC3)ccc2F)c(Cl)cn1)[C@H]1CNCCO1` [Example 15, (R)-Morpholine-2-carboxylic acid (5-chloro-4-{2-fluoro-5-[(tetrahydro-pyran-4-ylmethyl)-amino]-phenyl}-pyridin-2-yl)-amide] returned an IC50 of 16 nM. This IC50 and that of the compound before are within 1.5-fold of each other.

`O=C(Nc1cc(-c2cccc(OCc3cccc(F)c3)c2)c(Cl)cn1)[C@@H]1CCCNC1` [Example 6, (R)-Piperidine-3-carboxylic acid {5-chloro-4-[3-(3-fluoro-benzyloxy)-phenyl]-pyridin-2-yl}-amide] registered a 50% inhibitory concentration (IC50) against Cdk9/cyclinT1 of under 8 nM.

On Cdk9/cyclinT1, `O=C(Nc1cc(-c2cc(F)cc(NCC3CCOCC3)c2)c(Cl)cn1)C1CNCCO1` (stereo not shown) [Example 14, Morpholine-2-carboxylic acid (5-chloro-4-{3-fluoro-5-[(tetrahydro-pyran-4-ylmethyl)-amino]-phenyl}-pyridin-2-yl)-amide] yielded a concentration for half-maximal inhibition (IC50) of under 8 nM.

The compound `COc1ccc(F)cc1-c1cc(NC(=O)[C@@H]2CCCNC2)ncc1Cl` [Example 4, (R)—N-(5-Chloro-4-(5-fluoro-2-methoxyphenyl)pyridin-2-yl)piperidine-3-carboxamide] yielded a 50% inhibitory concentration (IC50) on Cdk9/cyclinT1 of under 8 nM.

On Cdk9/cyclinT1, `O=C(Nc1cc(-c2ccc(Cl)c(NCC3CCOCC3)c2)c(Cl)cn1)[C@@H]1CCCNC1` [Example 13, (R)—N-(5-Chloro-4-(4-chloro-3-(((tetrahydro-2H-pyran-4-yl)methyl)amino)phenyl)-pyridin-2-yl)piperidine-3-carboxamide] registered an IC50 of under 8 nM.

Take `O=C(Nc1cc(-c2cc(NCC3CCOCC3)ccc2F)c(Cl)cn1)[C@@H]1CCCNC1` [Example 12, (R)-Piperidine-3-carboxylic acid (5-chloro-4-{2-fluoro-5-[(tetrahydro-pyran-4-ylmethyl)-amino]-phenyl}-pyridin-2-yl)-amide]: the IC50 against Cdk9/cyclinT1 was under 8 nM.

With `COc1ccc(CNc2nc(N(CCO)CCO)nc3c2ncn3C(C)C)cc1` [CVT-313], the “inhibition of neointima formation” value in the assay with neointima formation was “greater than 80%”.

For `O=C(Nc1cc(-c2ccccc2)c(Cl)cn1)[C@@H]1CCCNC1` [Example 1, (R)—N-(5-chloro-4-phenylpyridin-2-yl)piperidine-3-carboxamide], on Cdk9/cyclinT1, half-maximal inhibition (IC50) required 20 nM.

In general, IC50 refers to the concentration that inhibits the measured activity by half.
